In patent publication US20220372014A1, “NEUROPROTECTIVE COMPOUNDS AND METHODS OF USE THEREOF” (The Johns Hopkins University, priority 2019, published 2022):

Tests used:
mouse cortical neurons = experiment: Pulsed-field gel electrophoresis of α-syn PFF-induced DNA damage in mouse cortical neurons; type: cell-based
Experimental: (§1) Preparation and quantification of genomic DNA. The striatum was rapidly removed from the brain and lysed by repetitive pipetting with a micropipette in lysis buffer [100 mM NaCl, 10 mM Tris-HCl (pH 8.0), 25 mM EDTA (pH 8.0), 0.5% SDS] with 0.2 mg/ml proteinase K (Roche Diagnotics). Samples were incubated 55° C. for overnight and further incubated 85° C. for 45 m to inactivate proteinase K. The genomic DNA were immediately separated on a 1.2% pulse field certified agarose in 0.5×TBE buffer with initial switch time of 1.5 s and a final switch time of 3.5 s for 12 h at 6 V/cm. The gel was then stained with […] Ethidium Bromide (EtBr) and visualized on UV light. Noncleaved genomic DNA was quantified as percentage (%) of the total genomic DNA that included both noncleaved genomic DNA and cleaved genomic DNA in each individual group.
Cell culture, transfection, primary neuronal culture and treatment. SH-SY5Y cells (ATCC) were cultured in DMEM containing 10% fetal bovine serum and penicillin/streptomycin at 37° C. under 5% C02. The cells were transfected using PolyFect reagent (Qiagen). Parthanatos was induced by the treatment of 50 μM MNNG for 15 min in SH-SY5Y cells. ABT-888 or PAAN/MIF inhibitors were pretreated with indicated concentration 1 h before MNNG treatment and cell death were assessed after 24 h. […]

PAAN/MIF WT or variants = target: T1, PAAN/MIF WT or variants (Homo sapiens, UniProt P14174); experiment: Biolayer interferometry (ForteBio Octet) binding assay; details: PAAN/MIF WT
T1 construct: made in house; host or cells: Escherichia coli
Excerpt: Purification of PAAN/MIF recombinant proteins. Human PAAN/MIF (NM_002415) cDNA and its variants were subcloned into pGEX-6β-1 vector (GE Healthcare) and mutants were generated using a QuikChange site-directed mutagenesis kit (Stratagene). The sequences were confirmed by automated DNA sequencing. The protein was expressed and purified from Escherichia coli by glutathione sepharose (GE Healthcare). The GST tag was subsequently proteolytically removed. GST protein was used as a negative control in the nuclease assay and PAAN/MIF proteins purified by FPLC using Superdex 200 10/300GL column (GE Healthcare, Life Sciences) were also used in the nuclease assays.
Biolayer interferometry assay. The dose-dependent binding of compound 121 for PAAN/MIF WT or PAAN/MIF variants were determined by a biolayer interferometry assay using Octet RED96 (ForteBio). See Guo et al. (2018) Nat. Chem. 11:254-63. All the proteins used in this assay were tagged with GST. Anti-GST biosensor tips (ForteBio) were used to immobilize the GST proteins after prewetting with 1X kinetic buffer (ForteBio). The equilibrated GST biosensors were loaded with PAAN/MIF WT or variants (25 μg/ml). Background binding controls were measured by sensors that were incubated in buffer without proteins. All assays were performed by a standard protocol in 96-well black plates (Greiner Bio) with a total volume of 200 μl per well. All the data were analyzed by Octet data analysis software.

PARP-1 = target: T2, PARP-1 (Homo sapiens, UniProt P09874); experiment: In vitro ribosylation assay (IVRA) of PARP-1; type: biochemical; details: 1 μM
T2 construct: purchased Trevigen
T2 sequence (P09874 whole entry): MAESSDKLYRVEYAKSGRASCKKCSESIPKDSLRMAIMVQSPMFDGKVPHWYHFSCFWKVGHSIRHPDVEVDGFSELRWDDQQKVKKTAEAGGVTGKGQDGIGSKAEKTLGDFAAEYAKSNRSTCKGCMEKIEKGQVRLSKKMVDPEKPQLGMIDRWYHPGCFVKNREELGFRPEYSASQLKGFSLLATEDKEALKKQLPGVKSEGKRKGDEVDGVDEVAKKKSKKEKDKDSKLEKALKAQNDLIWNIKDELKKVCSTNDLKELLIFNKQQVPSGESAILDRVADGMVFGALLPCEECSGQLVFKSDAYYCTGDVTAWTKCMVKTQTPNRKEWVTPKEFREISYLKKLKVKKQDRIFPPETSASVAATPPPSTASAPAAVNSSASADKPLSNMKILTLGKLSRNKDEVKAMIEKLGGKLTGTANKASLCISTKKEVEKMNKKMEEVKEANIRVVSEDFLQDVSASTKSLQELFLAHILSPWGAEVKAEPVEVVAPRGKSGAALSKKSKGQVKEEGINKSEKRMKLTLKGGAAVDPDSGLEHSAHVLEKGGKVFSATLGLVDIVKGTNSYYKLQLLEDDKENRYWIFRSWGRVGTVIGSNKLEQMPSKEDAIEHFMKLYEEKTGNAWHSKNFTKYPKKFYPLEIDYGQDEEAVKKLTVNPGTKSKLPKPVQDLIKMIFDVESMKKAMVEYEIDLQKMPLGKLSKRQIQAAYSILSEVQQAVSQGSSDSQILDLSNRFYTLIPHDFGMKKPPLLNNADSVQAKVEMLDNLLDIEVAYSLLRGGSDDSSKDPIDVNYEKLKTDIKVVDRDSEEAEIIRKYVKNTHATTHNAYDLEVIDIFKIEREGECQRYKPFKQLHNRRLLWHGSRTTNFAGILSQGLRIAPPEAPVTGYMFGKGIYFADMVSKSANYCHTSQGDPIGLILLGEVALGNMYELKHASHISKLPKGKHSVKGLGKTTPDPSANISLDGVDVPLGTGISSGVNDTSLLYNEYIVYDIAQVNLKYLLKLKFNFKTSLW
Experimental: In vitro ribosylation assay of PARP-1. […] of recombinant PARP-1, activated DNA and NAD+(Trevigen) in the presence or absence of 1 μM of PARP-1 inhibitor, ABT-888 or PAAN/MIF inhibitors (compound 56 or 121) were incubated in the PARP assay buffer (Trevigen) for 30 m at room temperature and analyzed by immunoblot analysis using PAR antibody.

human cortical neurons = experiment: Pulsed-field gel electrophoresis of α-syn PFF-induced DNA damage in human cortical neurons; type: cell-based
Experimental: as §1
Preparation of human cortical neurons. Human H1 embryonic stem cells (ESCs) were differentiated into cortical neurons as previously described. See Xu et al. (2016) Sci. Transl. Med. 8:333ra48. Briefly, ESC colonies detached from mouse embryonic fibroblasts (MEFs) were grown in suspension in human ESC medium without FGF2 for 6 days in low-attachment six-well plates (Corning). On day 7, free-floating embyroid bodies (EB)s were transferred to Matrigel coated plates to allow the complete attachment of EB and formation of rosette neuronal aggregates (RONAs). […]

SMILES | genomic DNA cleavage in mouse cortical neurons treated with α-syn PFF (mouse cortical neurons) | Kd, binding affinity of PAAN/MIF (PAAN/MIF WT or variants) [nM] | ABT-888 sensitive PARP activity (PARP-1) | genomic DNA cleavage in human cortical neurons treated with human α-syn PFF (human cortical neurons) | binding to PAAN/MIF (PAAN/MIF WT or variants)
COc1ccc(CC[C@H]2OC(=O)[C@@H]3CCCCN3C(=O)C(=O)C(C)(C)COC(=O)C=CCCN(C)C(=O)[C@@H]3CCCN3C(=O)[C@H](COC(C)(C)C)N(C)C(=O)C(c3ccccc3)NC(=O)[C@H](C)N(C)C(=O)COc3cc(F)cc2c3)cc1OC (mixture of isomers) [compound 121] | protected against genomic DNA cleavage | 1560 | failed to inhibit | – | –
COc1ccc(CC[C@H]2OC(=O)[C@@H]3CCCCN3C(=O)C(=O)C(C)(C)COC(=O)C=CCCN(C)C(=O)[C@@H]3CCCN3C(=O)[C@H](COC(C)(C)C)N(C)C(=O)C(c3ccccc3)NC(=O)[C@H](C)N(C)C(=O)COc3cccc2c3)cc1OC (some centres unmarked) [compound 56] | protected against genomic DNA cleavage | – | failed to inhibit | prevented genomic DNA cleavage | –
COc1ccc(CC[C@H]2OC(=O)[C@@H]3CCCCN3C(=O)C(=O)C(C)(C)COC(=O)C=CCCN(C)C(=O)[C@H](C)NC(=O)[C@H](C(C)C)N(C)C(=O)[C@@H](Cc3ccccc3)NC(=O)[C@H](CC(C)C)N(C)C(=O)CCC(=O)Nc3cccc2c3)cc1OC [compound 77] | – | – | – | prevented genomic DNA cleavage | –
COc1ccc(CC[C@H]2OC(=O)[C@@H]3CCCCN3C(=O)C(=O)C(C)(C)COC(=O)C=CCCN(C)C(=O)[C@@H]3CCCN3C(=O)[C@H](CO)N(C)C(=O)C(c3ccccc3)NC(=O)[C@H](C)N(C)C(=O)COc3cccc2c3)cc1OC (some centres unmarked) [compound 97] | – | – | – | – | lack of binding
